This test concerns the target T1, recombinant guanylate cyclase reporter cell line (Rattus norvegicus, UniProt P19686+P20595).
T1 construct: expressed in transfected cells
T1 sequence (P19686 1-690): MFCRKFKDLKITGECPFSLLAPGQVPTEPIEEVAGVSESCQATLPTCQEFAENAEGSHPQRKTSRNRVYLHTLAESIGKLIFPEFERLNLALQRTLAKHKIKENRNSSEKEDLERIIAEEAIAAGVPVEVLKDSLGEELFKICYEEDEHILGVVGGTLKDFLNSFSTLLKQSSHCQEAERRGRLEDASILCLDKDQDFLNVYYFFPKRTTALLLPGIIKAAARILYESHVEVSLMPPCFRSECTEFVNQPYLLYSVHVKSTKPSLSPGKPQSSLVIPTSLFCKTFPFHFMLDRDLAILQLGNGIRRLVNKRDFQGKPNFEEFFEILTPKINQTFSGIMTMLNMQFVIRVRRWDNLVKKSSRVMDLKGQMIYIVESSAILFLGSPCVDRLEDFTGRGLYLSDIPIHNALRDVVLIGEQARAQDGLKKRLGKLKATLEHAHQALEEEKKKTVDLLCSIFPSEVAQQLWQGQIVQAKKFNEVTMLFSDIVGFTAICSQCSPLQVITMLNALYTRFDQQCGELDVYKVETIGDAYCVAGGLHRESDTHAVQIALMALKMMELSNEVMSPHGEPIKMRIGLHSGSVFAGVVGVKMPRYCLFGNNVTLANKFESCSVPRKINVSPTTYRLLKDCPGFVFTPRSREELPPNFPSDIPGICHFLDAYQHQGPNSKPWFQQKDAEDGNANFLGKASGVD
T1 sequence (P20595 1-619): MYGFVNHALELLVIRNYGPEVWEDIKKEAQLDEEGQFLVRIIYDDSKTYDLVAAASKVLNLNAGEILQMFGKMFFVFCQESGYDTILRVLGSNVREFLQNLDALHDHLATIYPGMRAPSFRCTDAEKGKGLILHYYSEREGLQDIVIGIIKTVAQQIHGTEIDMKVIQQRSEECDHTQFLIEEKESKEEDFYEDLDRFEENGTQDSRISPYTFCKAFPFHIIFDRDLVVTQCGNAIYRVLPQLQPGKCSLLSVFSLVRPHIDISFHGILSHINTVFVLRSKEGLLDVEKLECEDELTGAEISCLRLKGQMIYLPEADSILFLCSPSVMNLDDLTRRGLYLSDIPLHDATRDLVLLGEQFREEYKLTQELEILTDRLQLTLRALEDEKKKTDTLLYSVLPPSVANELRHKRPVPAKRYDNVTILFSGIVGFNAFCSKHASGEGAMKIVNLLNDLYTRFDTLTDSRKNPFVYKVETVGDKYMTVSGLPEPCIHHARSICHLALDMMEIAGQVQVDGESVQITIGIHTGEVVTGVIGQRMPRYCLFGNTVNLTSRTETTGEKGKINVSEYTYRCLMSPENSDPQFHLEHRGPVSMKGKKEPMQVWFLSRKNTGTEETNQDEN
In words: Effect on a recombinant guanylate cyclase reporter cell line. The format is cell-based. The following applies: MEC = minimum effective concentration; in some cases mean values for individual determinations. On the procedure: B-2. Effect on a Recombinant Guanylate Cyclase Reporter Cell Line
The cellular action of the compounds of the invention is determined using a recombinant guanylate cyclase reporter cell line, as described in F. Wunder et al., Anal. Biochem. 339, 104-112 (2005).
Representative MEC values (MEC=minimum effective concentration) for the compounds of the invention are shown in the table below (in some cases as mean values for individual determinations): […]

Among the data in US20160176880A1, “SUBSTITUTED IMIDAZO[1,2-A]PYRAZINECARBOXAMIDES AND USE THEREOF” (BAYER PHARMA AKTIENGESELLSCHAFT, priority 2013, published 2016) are MEC values, retold here.

Molecules are shown by their SMILES. Structures can show the parent of a compound that is named as a salt.

In the case of `Cc1cn2c(C(=O)NC3CC3c3ccccc3)c(C)nc2c(OCc2c(F)cccc2F)n1` (racemic) [Example 17, rac-8-[(2,6-difluorobenzyl)oxy]-2,6-dimethyl-N-(2-phenylcyclopropyl)imidazo[1,2-a]pyrazine-3-carboxamide], the MEC came out at 10 µM.

Consider `Cc1cn2c(C(=O)NC(C)COCC(F)(F)F)c(C)nc2c(OCc2c(F)cccc2F)n1` (racemic) [Example 31, rac-8-[(2,6-difluorobenzyl)oxy]-2,6-dimethyl-N-[1-(2,2,2-trifluoroethoxy)propan-2-yl]imidazo[1,2-a]pyrazine-3-carboxamide], for which the MEC is 3 µM.

`Cc1cn2c(C(=O)NCCCCCC#N)c(C)nc2c(OCc2c(F)cccc2F)n1` [Example 49, N-(5-Cyanopentyl)-8-[(2,6-difluorobenzyl)oxy]-2,6-dimethylimidazo[1,2-a]pyrazine-3-carboxamide]: the MEC came out at 1.0 µM.

Consider `Cc1cn2c(C(=O)NN3CCOCC3)c(C)nc2c(OCc2c(F)cccc2F)n1` [Example 45, 8-[(2,6-difluorobenzyl)oxy]-2,6-dimethyl-N-(morpholin-4-yl)imidazo[1,2-a]pyrazine-3-carboxamide], for which the MEC stood at 10 µM.

For `Cc1cn2c(C(=O)Nc3cnn4ccccc34)c(C)nc2c(OCc2c(F)cccc2F)n1` [Example 30, 8-[(2,6-difluorobenzyl)oxy]-2,6-dimethyl-N-(pyrazolo[1,5-a]pyridin-3-yl)imidazo[1,2-a]pyrazine-3-carboxamide], the MEC was 3 µM.

As for `C=CCONC(=O)c1c(C)nc2c(OCc3c(F)cccc3F)nc(C)cn12` [Example 51, N-(allyloxy)-8-[(2,6-difluorobenzyl)oxy]-2,6-dimethylimidazo[1,2-a]pyrazine-3-carboxamide trifluoroacetate], the MEC amounted to 3.0 µM.
